{"source": "patent US12077503B2", "about": "“Substituted cyclic amides and their use as herbicides” (FMC CORPORATION, priority 2015, dated 2024)", "format_in_all_cases": "in vivo", "key": {"[1]": {"tested_on": "velvetleaf (Abutilon theophrasti)", "assay": "Test G Post-Emergence Protocol", "details": "Abutilon theophrasti, post-emergence, 312 h, read-out: Velvetleaf damage rating", "procedure,_shortened": "(§1)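 Post-emergence herbicidal damage, scored visually 0–100 at 13 days. Application at 15.625, 62.5 or 250 g/ha onto 8-day-old plants grown under glasshouse control.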"}, "[2]": {"tested_on": "giant foxtail (Setaria faberi)", "assay": "Test G Post-Emergence Protocol", "details": "Setaria faberi, post-emergence, 312 h, read-out: Foxtail, Giant damage rating", "procedure,_shortened": "as §1"}, "[3]": {"tested_on": "ivy-leaved morning glory (Ipomoea hederacea)", "assay": "Test G Post-Emergence Protocol", "details": "Ipomoea, post-emergence, 312 h, read-out: Morningglory, Ivy-leaved damage rating", "procedure,_shortened": "as §1"}, "[4]": {"tested_on": "barnyardgrass (Echinochloa crus-galli)", "assay": "Test G Post-Emergence Protocol", "details": "Echinochloa crus-galli, post-emergence, 312 h, read-out: Barnyardgrass damage rating", "procedure,_shortened": "as §1"}, "[5]": {"tested_on": "corn (Zea mays)", "assay": "Test G Post-Emergence Protocol", "details": "Zea mays, post-emergence, 312 h, read-out: Corn damage rating", "procedure,_shortened": "as §1"}, "[6]": {"tested_on": "redroot pigweed (Amaranthus retroflexus)", "assay": "Test G Post-Emergence Protocol", "details": "Amaranthus retroflexus, post-emergence, 312 h, read-out: Pigweed, Redroot damage rating", "procedure,_shortened": "as §1"}, "[7]": {"tested_on": "velvetleaf (Abutilon theophrasti)", "assay": "Test G Pre-Emergence Protocol", "details": "Abutilon theophrasti, pre-emergence, 312 h, evaluated after 13 days", "procedure,_shortened": "(§2)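 Pre-emergence spray, 15.625/62.5/250 g/ha, vehicle acetone:water 50:50 + 0.5% Tween 20, applied 1 d after sowing. Glasshouse 24/16° C, 14 h light, 65% RH, watered twice daily. Visual damage rating at 13 d, 0–100 scale.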"}, "[8]": {"tested_on": "giant foxtail (Setaria faberi)", "assay": "Test G Pre-Emergence Protocol", "details": "Setaria faberi, pre-emergence, 312 h, evaluated after 13 days", "procedure,_shortened": "as §2"}, "[9]": {"tested_on": "ivy-leaved morning glory (Ipomoea hederacea)", "assay": "Test G Pre-Emergence Protocol", "details": "Ipomoea, pre-emergence, 312 h, evaluated after 13 days", "procedure,_shortened": "as §2"}, "[10]": {"tested_on": "barnyardgrass (Echinochloa crus-galli)", "assay": "Test G Pre-Emergence Protocol", "details": "Echinochloa crus-galli, pre-emergence, 312 h, evaluated after 13 days", "procedure,_shortened": "as §2"}, "[11]": {"tested_on": "corn (Zea mays)", "assay": "Test G Pre-Emergence Protocol", "details": "Zea mays, pre-emergence, 312 h, evaluated after 13 days", "procedure,_shortened": "as §2"}, "[12]": {"tested_on": "redroot pigweed (Amaranthus retroflexus)", "assay": "Test G Pre-Emergence Protocol", "details": "Amaranthus retroflexus, pre-emergence, 312 h, evaluated after 13 days", "procedure,_shortened": "as §2"}, "[13]": {"details": "15.625 g ai/ha, evaluated after 13 days (100=total damage to plant; 0=no damage to plant)"}, "[14]": {"details": "62.5 g ai/ha, evaluated after 13 days, 100=total damage to plant, 0=no damage to plant"}, "[15]": {"details": "250 g ai/ha, evaluated after 13 days, 100=total damage to plant, 0=no damage to plant"}}, "data": [{"smiles": "CN1C[C@H](c2ccc(C(F)(F)F)c(C(F)(F)F)c2)[C@@H](C(=O)Nc2ccccc2S(C)(=O)=O)C1=O", "note": "(racemic) [Compound 1799]", "values": [{"measurement": "pest or weed control at 15.625 g/ha", "setting": "[1]; [13]", "result": 0, "unit": "%"}, {"measurement": "pest or weed control at 62.5 g/ha", "setting": "[1]; [14]", "result": 20, "unit": "%"}, {"measurement": "pest or weed control at 250 g/ha", "setting": "[1]; [15]", "result": 10, "unit": "%"}, {"measurement": "pest or weed control at 15.625 g/ha", "setting": "[2]; [13]", "result": 20, "unit": "%"}, {"measurement": "pest or weed control at 62.5 g/ha", "setting": "[2]; [14]", "result": 70, "unit": "%"}, {"measurement": "pest or weed control at 250 g/ha", "setting": "[2]; [15]", "result": 70, "unit": "%"}, {"measurement": "pest or weed control at 15.625 g/ha", "setting": "[3]; [13]", "result": 10, "unit": "%"}, {"measurement": "pest or weed control at 62.5 g/ha", "setting": "[3]; [14]", "result": 60, "unit": "%"}, {"measurement": "pest or weed control at 250 g/ha", "setting": "[3]; [15]", "result": 30, "unit": "%"}, {"measurement": "pest or weed control at 15.625 g/ha", "setting": "[4]; [13]", "result": 0, "unit": "%"}, {"measurement": "pest or weed control at 62.5 g/ha", "setting": "[4]; [14]", "result": 60, "unit": "%"}, {"measurement": "pest or weed control at 250 g/ha", "setting": "[4]; [15]", "result": 70, "unit": "%"}, {"measurement": "plant injury at 15.625 g/ha", "setting": "[5]; [13]", "result": 10, "unit": "%"}, {"measurement": "plant injury at 62.5 g/ha", "setting": "[5]; [14]", "result": 60, "unit": "%"}, {"measurement": "plant injury at 250 g/ha", "setting": "[5]; [15]", "result": 70, "unit": "%"}, {"measurement": "pest or weed control at 15.625 g/ha", "setting": "[6]; [13]", "result": 0, "unit": "%"}, {"measurement": "pest or weed control at 62.5 g/ha", "setting": "[6]; [14]", "result": 60, "unit": "%"}, {"measurement": "pest or weed control at 250 g/ha", "setting": "[6]; [15]", "result": 70, "unit": "%"}, {"measurement": "pest or weed control at 15.625 g/ha", "setting": "[7]; 15.625 g ai/ha, read-out: Velvetleaf damage rating (100=total damage to plant; 0=no damage to plant)", "result": 0, "unit": "%"}, {"measurement": "pest or weed control at 62.5 g/ha", "setting": "[7]; 62.5 g ai/ha, 100=total damage to plant, 0=no damage to plant, read-out: Velvetleaf damage rating", "result": 0, "unit": "%"}, {"measurement": "pest or weed control at 250 g/ha", "setting": "[7]; 250 g ai/ha, read-out: Velvetleaf damage rating (100=total damage to plant; 0=no damage to plant)", "result": 20, "unit": "%"}, {"measurement": "pest or weed control at 15.625 g/ha", "setting": "[8]; 15.625 g ai/ha, read-out: Foxtail, Giant damage rating (100=total damage to plant; 0=no damage to plant)", "result": 50, "unit": "%"}, {"measurement": "pest or weed control at 62.5 g/ha", "setting": "[8]; 62.5 g ai/ha, 100=total damage to plant, 0=no damage to plant, read-out: Foxtail, Giant damage rating", "result": 90, "unit": "%"}, {"measurement": "pest or weed control at 250 g/ha", "setting": "[8]; 250 g ai/ha, read-out: Foxtail, Giant damage rating (100=total damage to plant; 0=no damage to plant)", "result": 90, "unit": "%"}, {"measurement": "pest or weed control at 15.625 g/ha", "setting": "[9]; 15.625 g ai/ha, read-out: Morningglory, Ivy-leaved damage rating (100=total damage to plant; 0=no damage to plant)", "result": 0, "unit": "%"}, {"measurement": "pest or weed control at 62.5 g/ha", "setting": "[9]; 62.5 g ai/ha, 100=total damage to plant, 0=no damage to plant, read-out: Morningglory, Ivy-leaved damage rating", "result": 0, "unit": "%"}, {"measurement": "pest or weed control at 250 g/ha", "setting": "[9]; 250 g ai/ha, read-out: Morningglory, Ivy-leaved damage rating (100=total damage to plant; 0=no damage to plant)", "result": 0, "unit": "%"}, {"measurement": "pest or weed control at 15.625 g/ha", "setting": "[10]; 15.625 g ai/ha, read-out: Barnyardgrass damage rating (100=total damage to plant; 0=no damage to plant)", "result": 10, "unit": "%"}, {"measurement": "pest or weed control at 62.5 g/ha", "setting": "[10]; 62.5 g ai/ha, 100=total damage to plant, 0=no damage to plant, read-out: Barnyardgrass damage rating", "result": 70, "unit": "%"}, {"measurement": "pest or weed control at 250 g/ha", "setting": "[10]; 250 g ai/ha, read-out: Barnyardgrass damage rating (100=total damage to plant; 0=no damage to plant)", "result": 70, "unit": "%"}, {"measurement": "plant injury at 15.625 g/ha", "setting": "[11]; 15.625 g ai/ha, read-out: Corn damage rating (100=total damage to plant; 0=no damage to plant)", "result": 0, "unit": "%"}, {"measurement": "plant injury at 62.5 g/ha", "setting": "[11]; 62.5 g ai/ha, 100=total damage to plant, 0=no damage to plant, read-out: Corn damage rating", "result": 70, "unit": "%"}, {"measurement": "plant injury at 250 g/ha", "setting": "[11]; 250 g ai/ha, read-out: Corn damage rating (100=total damage to plant; 0=no damage to plant)", "result": 80, "unit": "%"}, {"measurement": "pest or weed control at 15.625 g/ha", "setting": "[12]; 15.625 g ai/ha, read-out: Pigweed, Redroot damage rating (100=total damage to plant; 0=no damage to plant)", "result": 0, "unit": "%"}, {"measurement": "pest or weed control at 62.5 g/ha", "setting": "[12]; 62.5 g ai/ha, 100=total damage to plant, 0=no damage to plant, read-out: Pigweed, Redroot damage rating", "result": 10, "unit": "%"}, {"measurement": "pest or weed control at 250 g/ha", "setting": "[12]; 250 g ai/ha, read-out: Pigweed, Redroot damage rating (100=total damage to plant; 0=no damage to plant)", "result": 40, "unit": "%"}]}]}
